Results on 1 compound are retold here after ChEMBL document CHEMBL2074185, “Differential effects of the breast cancer resistance protein on the cellular accumulation and cytotoxicity of 9-aminocamptothecin and 9-nitrocamptothecin” (Cancer Res, 2003).

This series concerns the target T1, Broad substrate specificity ATP-binding cassette transporter ABCG2 (Homo sapiens, UniProt Q9UNQ0).
T1 sequence (Q9UNQ0 whole entry): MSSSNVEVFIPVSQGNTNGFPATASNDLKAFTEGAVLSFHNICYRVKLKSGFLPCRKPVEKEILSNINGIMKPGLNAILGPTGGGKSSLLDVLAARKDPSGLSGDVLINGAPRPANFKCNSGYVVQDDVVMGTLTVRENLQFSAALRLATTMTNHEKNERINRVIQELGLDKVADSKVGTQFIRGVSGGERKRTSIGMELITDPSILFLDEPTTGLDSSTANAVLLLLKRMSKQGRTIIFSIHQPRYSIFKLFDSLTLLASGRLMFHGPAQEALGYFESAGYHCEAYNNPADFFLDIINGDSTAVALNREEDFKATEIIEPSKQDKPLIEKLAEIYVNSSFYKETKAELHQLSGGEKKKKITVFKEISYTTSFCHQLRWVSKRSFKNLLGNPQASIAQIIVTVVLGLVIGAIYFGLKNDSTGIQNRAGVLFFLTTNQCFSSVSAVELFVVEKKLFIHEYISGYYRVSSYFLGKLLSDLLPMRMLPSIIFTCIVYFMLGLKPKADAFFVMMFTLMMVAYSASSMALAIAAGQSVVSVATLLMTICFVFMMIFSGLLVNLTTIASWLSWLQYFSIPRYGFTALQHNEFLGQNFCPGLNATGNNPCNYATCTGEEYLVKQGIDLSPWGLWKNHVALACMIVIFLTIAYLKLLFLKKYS
Nature of the series: TP_TRANSPORTER: uptake in BCRP-expressing HEK293 cells. In kind it is functional, cell-based.

Turning to `CC[C@@]1(O)C(=O)OCc2c1cc1n(c2=O)Cc2cc3c(N)cccc3nc2-1` [9-AMINOCAMPTOTHECIN], the Activity entry was “substrate []”.
